Measured values from patent US20160263221A1, “MULTI-RESPONSIVE TARGETING DRUG DELIVERY SYSTEMS FOR CONTROLLED-RELEASE PHARMACEUTICAL FORMULATION” (priority 2013, published 2016).

System: HeLa tumor
Assay: therapeutic efficacy in HeLa tumor bearing SCID mice, volume of cancer as a function of time
Type: in vivo
Conditions: FIG. 6
Text: The inventors determine the therapeutic efficacy of the multi-responsive targeting nano-containers of the present invention using HeLa tumor bearing SCID mice and monitor the volume of cancer as a function of time.

## COc1cccc2c1C(=O)c1c(O)c3c(c(O)c1C2=O)C[C@@](O)(C(=O)CO)C[C@@H]3O[C@H]1C[C@H](N)[C@H](O)[C@H](C)O1 [Doxorubicin, doxorubicin]
  volume of the cancer as a function of time: the volume of the cancer increases with time
